Source: patent US9738660B2, “Selective inhibitors for protein kinases and pharmaceutical composition and use thereof” (National Chiao Tung University, priority 2014, dated 2017)
Where two headings read alike, the source gives them in different places.

Assays:
Assay in all cases: Kinase Profiler, residual kinase activity
Format in all cases: biochemical
[1] = molecular target: CHEK2 (Homo sapiens, UniProt O96017); conditions: read-out: percentage of the remaining kinase activity
[2] = molecular target: LCK (Homo sapiens, UniProt P06239); conditions: read-out: percentage of the remaining kinase activity
Sequence of LCK (P06239 whole entry): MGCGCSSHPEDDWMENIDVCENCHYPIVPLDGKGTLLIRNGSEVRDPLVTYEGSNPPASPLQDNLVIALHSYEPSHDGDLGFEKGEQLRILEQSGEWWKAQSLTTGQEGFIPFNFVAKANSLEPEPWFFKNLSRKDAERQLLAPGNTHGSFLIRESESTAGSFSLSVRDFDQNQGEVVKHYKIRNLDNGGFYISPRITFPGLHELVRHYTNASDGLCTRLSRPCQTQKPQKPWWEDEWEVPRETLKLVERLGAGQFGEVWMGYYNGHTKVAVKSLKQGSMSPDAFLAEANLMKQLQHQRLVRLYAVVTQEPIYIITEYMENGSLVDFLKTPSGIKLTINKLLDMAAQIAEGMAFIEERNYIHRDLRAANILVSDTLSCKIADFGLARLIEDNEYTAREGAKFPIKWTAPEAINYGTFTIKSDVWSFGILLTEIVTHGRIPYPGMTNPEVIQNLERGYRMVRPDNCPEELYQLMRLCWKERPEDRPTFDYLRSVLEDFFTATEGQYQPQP

[3] = molecular target: ABL1 (Homo sapiens, UniProt P00519); conditions: read-out: percentage of the remaining kinase activity
[4] = molecular target: T1, PDPK1 (Homo sapiens, UniProt O15530); conditions: read-out: percentage of the remaining kinase activity
T1 sequence (O15530 1-556): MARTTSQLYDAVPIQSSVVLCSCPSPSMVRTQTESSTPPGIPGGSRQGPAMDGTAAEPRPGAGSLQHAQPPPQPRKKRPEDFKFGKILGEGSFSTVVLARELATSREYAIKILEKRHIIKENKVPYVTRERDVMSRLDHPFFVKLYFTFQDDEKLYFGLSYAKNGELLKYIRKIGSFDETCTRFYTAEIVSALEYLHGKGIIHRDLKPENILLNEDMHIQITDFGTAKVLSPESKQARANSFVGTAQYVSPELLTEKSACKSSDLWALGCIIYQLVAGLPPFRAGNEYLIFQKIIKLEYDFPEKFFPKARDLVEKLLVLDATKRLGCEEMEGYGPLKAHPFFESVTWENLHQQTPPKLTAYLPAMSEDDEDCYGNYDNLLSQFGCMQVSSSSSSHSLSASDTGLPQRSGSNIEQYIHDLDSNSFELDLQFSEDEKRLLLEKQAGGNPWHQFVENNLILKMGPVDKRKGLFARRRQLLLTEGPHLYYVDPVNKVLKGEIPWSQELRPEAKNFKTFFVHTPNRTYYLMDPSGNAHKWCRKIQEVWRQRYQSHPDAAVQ
Text: (§1) Kinase Profiler services provided by […]. (http://www.reactionbiology.com) were used to analyze the data of the 9 type-S protein kinase inhibitors against the 40 types of protein kinases.

[5] = molecular target: T2, IRAK4 (Homo sapiens, UniProt Q9NWZ3); conditions: read-out: percentage of the remaining kinase activity
T2 sequence (Q9NWZ3 1-460): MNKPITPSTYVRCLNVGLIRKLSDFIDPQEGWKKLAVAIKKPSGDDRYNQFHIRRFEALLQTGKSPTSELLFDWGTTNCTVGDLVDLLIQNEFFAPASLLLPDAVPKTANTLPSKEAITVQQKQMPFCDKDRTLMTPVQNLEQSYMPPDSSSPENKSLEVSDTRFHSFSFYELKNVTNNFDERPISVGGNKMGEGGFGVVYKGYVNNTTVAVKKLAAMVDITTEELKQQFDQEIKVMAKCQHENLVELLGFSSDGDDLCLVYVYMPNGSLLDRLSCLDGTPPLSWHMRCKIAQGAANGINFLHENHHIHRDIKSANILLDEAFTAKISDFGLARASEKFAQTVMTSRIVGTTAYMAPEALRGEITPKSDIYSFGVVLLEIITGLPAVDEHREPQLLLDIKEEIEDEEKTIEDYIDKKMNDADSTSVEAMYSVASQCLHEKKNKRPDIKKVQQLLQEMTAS
Text: as §1

[6] = molecular target: T3, EGFR (Homo sapiens, UniProt P00533); conditions: read-out: percentage of the remaining kinase activity
T3 construct: purchased Research Biology Corp. (http://www.reactionbiology.com)
Text: as §1

[7] = molecular target: T4, FGFR2 (Homo sapiens, UniProt P21802); conditions: for remaining activity at 0.5 µM: read-out: percentage of the remaining kinase activity
T4 construct: purchased Research Biology Corp. (http://www.reactionbiology.com)
T4 sequence (P21802 22-821): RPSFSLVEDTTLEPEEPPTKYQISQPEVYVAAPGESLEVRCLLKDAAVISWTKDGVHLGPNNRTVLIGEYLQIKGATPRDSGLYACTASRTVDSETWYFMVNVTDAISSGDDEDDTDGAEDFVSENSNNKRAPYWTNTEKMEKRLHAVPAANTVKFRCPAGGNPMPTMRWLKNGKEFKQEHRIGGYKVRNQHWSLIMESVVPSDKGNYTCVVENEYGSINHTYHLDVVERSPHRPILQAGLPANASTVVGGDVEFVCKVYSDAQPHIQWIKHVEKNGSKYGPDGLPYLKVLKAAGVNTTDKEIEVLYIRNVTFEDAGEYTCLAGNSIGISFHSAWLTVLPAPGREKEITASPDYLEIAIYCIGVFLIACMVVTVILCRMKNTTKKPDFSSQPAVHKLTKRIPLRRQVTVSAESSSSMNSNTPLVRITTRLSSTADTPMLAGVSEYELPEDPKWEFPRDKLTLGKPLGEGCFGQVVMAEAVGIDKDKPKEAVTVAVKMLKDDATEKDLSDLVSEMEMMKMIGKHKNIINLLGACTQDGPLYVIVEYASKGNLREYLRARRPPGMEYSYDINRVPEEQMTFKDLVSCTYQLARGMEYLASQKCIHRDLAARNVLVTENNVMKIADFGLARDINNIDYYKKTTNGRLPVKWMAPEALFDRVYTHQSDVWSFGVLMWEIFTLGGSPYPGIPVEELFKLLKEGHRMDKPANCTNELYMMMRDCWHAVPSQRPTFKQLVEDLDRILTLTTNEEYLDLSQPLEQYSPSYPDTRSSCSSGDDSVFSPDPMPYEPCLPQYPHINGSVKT
Text: as §1

[8] = molecular target: CLK1 (Homo sapiens, UniProt P49759); conditions: read-out: percentage of the remaining kinase activity
Text: as §1

[9] = molecular target: LIMK1 (Homo sapiens, UniProt P53667); conditions: read-out: percentage of the remaining kinase activity
Sequence of LIMK1 (P53667 whole entry): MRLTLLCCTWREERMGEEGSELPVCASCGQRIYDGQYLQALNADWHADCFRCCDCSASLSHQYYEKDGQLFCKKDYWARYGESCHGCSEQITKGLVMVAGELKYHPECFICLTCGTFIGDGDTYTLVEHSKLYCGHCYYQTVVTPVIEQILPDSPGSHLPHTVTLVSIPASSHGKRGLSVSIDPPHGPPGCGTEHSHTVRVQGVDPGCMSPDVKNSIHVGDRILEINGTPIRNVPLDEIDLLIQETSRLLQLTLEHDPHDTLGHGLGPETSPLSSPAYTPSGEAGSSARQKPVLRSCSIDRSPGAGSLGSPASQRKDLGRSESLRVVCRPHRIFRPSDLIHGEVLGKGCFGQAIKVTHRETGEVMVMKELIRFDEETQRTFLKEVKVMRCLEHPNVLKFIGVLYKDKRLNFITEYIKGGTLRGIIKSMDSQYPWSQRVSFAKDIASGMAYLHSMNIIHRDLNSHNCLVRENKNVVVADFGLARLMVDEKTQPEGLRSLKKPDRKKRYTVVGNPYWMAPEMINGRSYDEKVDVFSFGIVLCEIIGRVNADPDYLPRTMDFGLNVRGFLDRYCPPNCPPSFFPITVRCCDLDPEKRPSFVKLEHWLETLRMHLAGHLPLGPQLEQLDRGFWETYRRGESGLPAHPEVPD
Text: as §1

[10] = molecular target: RET (Homo sapiens, UniProt P07949); conditions: read-out: percentage of the remaining kinase activity
Sequence of RET (P07949 29-1114): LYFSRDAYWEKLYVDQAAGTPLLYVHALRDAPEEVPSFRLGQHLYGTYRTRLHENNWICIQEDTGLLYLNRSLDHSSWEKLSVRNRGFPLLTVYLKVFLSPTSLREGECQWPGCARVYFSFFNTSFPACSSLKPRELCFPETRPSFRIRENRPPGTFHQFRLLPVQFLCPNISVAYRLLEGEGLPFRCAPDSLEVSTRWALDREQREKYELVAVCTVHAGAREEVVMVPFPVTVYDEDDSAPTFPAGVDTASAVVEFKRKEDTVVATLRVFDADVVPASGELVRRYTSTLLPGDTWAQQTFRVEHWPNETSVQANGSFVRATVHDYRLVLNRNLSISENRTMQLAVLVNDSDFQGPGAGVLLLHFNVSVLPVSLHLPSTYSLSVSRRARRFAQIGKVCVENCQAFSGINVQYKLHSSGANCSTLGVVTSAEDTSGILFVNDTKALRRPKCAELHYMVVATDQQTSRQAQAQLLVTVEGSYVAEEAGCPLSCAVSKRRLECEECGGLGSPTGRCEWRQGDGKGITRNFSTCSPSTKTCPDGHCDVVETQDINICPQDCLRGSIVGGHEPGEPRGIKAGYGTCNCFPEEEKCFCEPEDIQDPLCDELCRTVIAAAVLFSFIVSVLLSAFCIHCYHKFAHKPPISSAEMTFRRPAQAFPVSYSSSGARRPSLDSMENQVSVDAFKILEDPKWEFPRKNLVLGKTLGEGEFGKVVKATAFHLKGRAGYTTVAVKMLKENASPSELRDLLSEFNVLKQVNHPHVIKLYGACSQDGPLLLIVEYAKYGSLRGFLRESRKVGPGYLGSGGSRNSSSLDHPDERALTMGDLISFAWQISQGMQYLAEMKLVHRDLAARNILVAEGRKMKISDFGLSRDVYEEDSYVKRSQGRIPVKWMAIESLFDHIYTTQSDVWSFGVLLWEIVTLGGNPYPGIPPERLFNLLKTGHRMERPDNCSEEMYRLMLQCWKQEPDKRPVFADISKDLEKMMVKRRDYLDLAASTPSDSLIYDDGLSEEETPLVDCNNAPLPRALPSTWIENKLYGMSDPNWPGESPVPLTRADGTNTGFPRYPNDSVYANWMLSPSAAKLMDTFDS
Text: as §1

[11] = molecular target: T5, GSG2 (Homo sapiens, UniProt Q8TF76); conditions: read-out: percentage of the remaining kinase activity
T5 sequence (Q8TF76 1-798): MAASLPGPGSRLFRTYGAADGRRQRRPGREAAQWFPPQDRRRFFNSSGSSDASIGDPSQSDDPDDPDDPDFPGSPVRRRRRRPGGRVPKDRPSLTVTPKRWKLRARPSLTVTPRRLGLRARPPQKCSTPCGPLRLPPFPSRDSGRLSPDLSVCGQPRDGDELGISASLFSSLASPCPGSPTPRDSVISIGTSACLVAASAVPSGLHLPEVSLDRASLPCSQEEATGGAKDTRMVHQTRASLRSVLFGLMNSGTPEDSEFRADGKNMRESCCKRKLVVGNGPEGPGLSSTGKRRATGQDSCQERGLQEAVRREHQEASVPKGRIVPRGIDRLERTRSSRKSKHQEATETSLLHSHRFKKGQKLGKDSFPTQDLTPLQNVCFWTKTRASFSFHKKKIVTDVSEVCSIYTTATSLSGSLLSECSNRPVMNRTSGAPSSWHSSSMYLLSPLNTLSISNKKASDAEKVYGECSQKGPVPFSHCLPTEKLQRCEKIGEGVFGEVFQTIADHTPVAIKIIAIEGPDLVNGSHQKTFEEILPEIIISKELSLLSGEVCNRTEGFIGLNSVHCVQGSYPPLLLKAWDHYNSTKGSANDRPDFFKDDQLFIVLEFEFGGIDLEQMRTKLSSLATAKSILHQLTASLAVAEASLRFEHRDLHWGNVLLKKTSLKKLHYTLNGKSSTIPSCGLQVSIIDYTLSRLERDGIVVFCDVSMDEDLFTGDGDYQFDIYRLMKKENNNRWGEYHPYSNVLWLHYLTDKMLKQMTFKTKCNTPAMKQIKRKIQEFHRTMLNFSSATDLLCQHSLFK
Text: as §1

[12] = molecular target: KDR (Homo sapiens, UniProt P35968); conditions: read-out: percentage of the remaining kinase activity
Text: as §1

[13] = molecular target: JAK2 (Homo sapiens, UniProt O60674); conditions: read-out: percentage of the remaining kinase activity
Sequence of JAK2 (O60674 whole entry): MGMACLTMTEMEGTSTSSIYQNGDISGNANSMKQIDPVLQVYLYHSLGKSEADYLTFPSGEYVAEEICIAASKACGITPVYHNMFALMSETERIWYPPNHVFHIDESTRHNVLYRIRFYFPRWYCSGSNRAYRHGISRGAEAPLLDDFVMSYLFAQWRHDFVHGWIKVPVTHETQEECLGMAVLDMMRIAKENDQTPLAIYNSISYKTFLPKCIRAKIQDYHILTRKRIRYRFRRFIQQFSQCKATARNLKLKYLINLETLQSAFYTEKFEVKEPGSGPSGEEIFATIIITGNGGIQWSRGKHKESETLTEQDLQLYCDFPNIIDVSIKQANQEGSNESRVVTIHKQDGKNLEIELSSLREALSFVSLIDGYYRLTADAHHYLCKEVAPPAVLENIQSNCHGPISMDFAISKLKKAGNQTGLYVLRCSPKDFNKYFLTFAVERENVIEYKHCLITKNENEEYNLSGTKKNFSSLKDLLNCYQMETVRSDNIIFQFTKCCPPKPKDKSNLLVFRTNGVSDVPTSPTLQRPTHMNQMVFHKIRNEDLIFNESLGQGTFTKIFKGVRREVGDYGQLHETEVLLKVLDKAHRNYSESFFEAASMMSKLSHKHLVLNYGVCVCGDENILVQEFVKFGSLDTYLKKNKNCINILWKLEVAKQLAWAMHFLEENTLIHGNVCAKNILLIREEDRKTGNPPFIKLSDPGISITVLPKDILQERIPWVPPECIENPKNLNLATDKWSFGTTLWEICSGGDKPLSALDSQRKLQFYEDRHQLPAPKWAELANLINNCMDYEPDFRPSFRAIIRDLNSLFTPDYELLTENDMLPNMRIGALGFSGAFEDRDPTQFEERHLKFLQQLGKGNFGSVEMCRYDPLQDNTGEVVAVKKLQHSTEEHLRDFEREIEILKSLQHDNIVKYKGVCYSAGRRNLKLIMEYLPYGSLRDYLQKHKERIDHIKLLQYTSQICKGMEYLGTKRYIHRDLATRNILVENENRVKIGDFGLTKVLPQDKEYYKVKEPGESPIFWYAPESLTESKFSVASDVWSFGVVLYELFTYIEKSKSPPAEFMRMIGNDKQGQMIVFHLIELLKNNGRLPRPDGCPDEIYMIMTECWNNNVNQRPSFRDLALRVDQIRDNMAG
Text: as §1

Sequence of CHEK2 (O96017 whole entry): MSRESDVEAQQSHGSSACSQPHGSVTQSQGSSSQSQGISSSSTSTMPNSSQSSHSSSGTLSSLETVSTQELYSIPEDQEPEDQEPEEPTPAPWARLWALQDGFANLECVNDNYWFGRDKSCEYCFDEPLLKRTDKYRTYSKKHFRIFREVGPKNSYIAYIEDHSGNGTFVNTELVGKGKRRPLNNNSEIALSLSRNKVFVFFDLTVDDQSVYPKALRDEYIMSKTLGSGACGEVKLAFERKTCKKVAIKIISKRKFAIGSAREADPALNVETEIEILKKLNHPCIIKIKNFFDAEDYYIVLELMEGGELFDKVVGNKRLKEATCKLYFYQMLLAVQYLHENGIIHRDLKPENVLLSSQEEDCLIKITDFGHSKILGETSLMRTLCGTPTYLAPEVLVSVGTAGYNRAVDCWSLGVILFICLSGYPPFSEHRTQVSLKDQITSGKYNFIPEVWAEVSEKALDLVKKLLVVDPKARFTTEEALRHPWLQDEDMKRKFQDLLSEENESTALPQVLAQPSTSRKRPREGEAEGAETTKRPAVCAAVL

remaining activity at 0.5 µM ([1]; CHEK2, inhibitor at 500 nM) | remaining activity at 0.5 µM ([2]; LCK, inhibitor at 500 nM) | remaining activity at 0.5 µM ([3]; ABL1, inhibitor at 500 nM) | remaining activity at 0.5 µM ([4]; PDPK1, inhibitor at 500 nM) | remaining activity at 0.5 µM ([5]; IRAK4, inhibitor at 500 nM) | remaining activity at 0.5 µM ([6]; EGFR, inhibitor at 500 nM) | remaining activity at 0.5 µM ([7]; FGFR2, inhibitor at 500 nM) | remaining activity at 0.5 µM ([8]; CLK1, inhibitor at 500 nM) | remaining activity at 0.5 µM ([9]; LIMK1, inhibitor at 500 nM) | remaining activity at 0.5 µM ([10]; RET, inhibitor at 500 nM) | remaining activity at 0.5 µM ([11]; GSG2, inhibitor at 500 nM) | remaining activity at 0.5 µM ([12]; KDR, inhibitor at 500 nM) | remaining activity at 0.5 µM ([13]; JAK2, inhibitor at 500 nM) | Structure (SMILES) | also measured
30.3% | 2.1% | 77.6% | 0.5% | 33.4% | 30.5% | 9.8% | 15.9% | 18.8% | 6% | 69.9% | 6.5% | 4.4% | COC1C(N(C)C(=O)C(N)Cc2c[nH]cn2)CC2OC1(C)n1c3ccccc3c3c4c(c5c6ccccc6n2c5c31)C(=O)NC4 (centres unmarked) [Compound 1] | –
95.8% | 97% | 109% | 81% | 101% | 110% | 88.4% | 107% | 103% | 101% | 110% | 102% | 70% | COC1C(N(C)C(=O)C(N)Cc2cn(C(=O)OC(C)(C)C)c3ccccc23)CC2OC1(C)n1c3ccccc3c3c4c(c5c6ccccc6n2c5c31)C(=O)NC4 (centres unmarked) [Compound 2] | –
80.4% | 68.8% | 107% | 13.3% | 87.4% | 108% | 43.2% | 98.6% | 66.9% | 63% | 102% | 50.8% | 36.4% | COC1C(N(C)C(=O)C(N)Cc2ccc(OC(C)(C)C)cc2)CC2OC1(C)n1c3ccccc3c3c4c(c5c6ccccc6n2c5c31)C(=O)NC4 (centres unmarked) [Compound 4] | inhibitory effect on FGFR2 ([7]; in words): had an inhibitory effect on FGFR2
73.2% | 11.5% | 104% | 2% | 85.9% | 93.1% | 21.7% | 29.6% | 46.9% | 21.3% | 89.5% | 16.3% | 19.4% | COC1C(N(C)C(=O)C(N)Cc2ccc(O)cc2)CC2OC1(C)n1c3ccccc3c3c4c(c5c6ccccc6n2c5c31)C(=O)NC4 (centres unmarked) [Compound 5] | –
82.7% | 44% | 97.6% | 3.4% | 63.5% | 108% | 26.5% | 86.6% | 39.5% | 34.2% | 88% | 42.4% | 39.6% | COC1C(N(C)C(=O)C(N)CCC(=O)OC(C)(C)C)CC2OC1(C)n1c3ccccc3c3c4c(c5c6ccccc6n2c5c31)C(=O)NC4 (centres unmarked) [Compound 6] | –
47.2% | 3% | 68% | 0.5% | 46.8% | 82.2% | 9.2% | 32.3% | 1.4% | 1.6% | 69.9% | 5.4% | 1.5% | COC1C(N(C)C(=O)C(N)CCC(=O)O)CC2OC1(C)n1c3ccccc3c3c4c(c5c6ccccc6n2c5c31)C(=O)NC4 (centres unmarked) [Compound 7] | –
– | – | – | – | – | – | – | – | – | – | – | – | – | COC1C(N(C)CCOc2cccc([N+](=O)[O-])c2)CC2OC1(C)n1c3ccccc3c3c4c(c5c6ccccc6n2c5c31)C(=O)NC4 (centres unmarked) [Compound 8] | remaining activity at 0.5 µM [1]: 46.7%; remaining activity at 0.5 µM [2]: 24%; remaining activity at 0.5 µM [3]: 92.5%; remaining activity at 0.5 µM [4]: 4.7%; remaining activity at 0.5 µM [5]: 27.9%; remaining activity at 0.5 µM [6]: 102%; remaining activity at 0.5 µM [7]: 31.4%; remaining activity at 0.5 µM [8]: 74.8%; remaining activity at 0.5 µM [9]: 49.9%; remaining activity at 0.5 µM [10]: 16.2%; remaining activity at 0.5 µM [11]: 89.8%; remaining activity at 0.5 µM [12]: 43.3%; remaining activity at 0.5 µM [13]: 5.2%
37.7% | 14% | 84.9% | 2.7% | 26.6% | 96.2% | 26.5% | 73.7% | 56.5% | 14.8% | 87.8% | 43.6% | 4.4% | COC1C(N(C)Cc2ccc(-c3ccccc3)cc2)CC2OC1(C)n1c3ccccc3c3c4c(c5c6ccccc6n2c5c31)C(=O)NC4 (centres unmarked) [Compound 9] | –

Structure (SMILES) | remaining activity at 0.5 µM ([1]; CHEK2, inhibitor at 500 nM) | remaining activity at 0.5 µM ([2]; LCK, inhibitor at 500 nM) | remaining activity at 0.5 µM ([3]; ABL1, inhibitor at 500 nM) | remaining activity at 0.5 µM ([4]; PDPK1, inhibitor at 500 nM) | remaining activity at 0.5 µM ([5]; IRAK4, inhibitor at 500 nM) | remaining activity at 0.5 µM ([6]; EGFR, inhibitor at 500 nM) | remaining activity at 0.5 µM ([7]; FGFR2, inhibitor at 500 nM) | remaining activity at 0.5 µM ([8]; CLK1, inhibitor at 500 nM) | remaining activity at 0.5 µM ([9]; LIMK1, inhibitor at 500 nM) | remaining activity at 0.5 µM ([10]; RET, inhibitor at 500 nM) | remaining activity at 0.5 µM ([11]; GSG2, inhibitor at 500 nM) | remaining activity at 0.5 µM ([12]; KDR, inhibitor at 500 nM) | remaining activity at 0.5 µM ([13]; JAK2, inhibitor at 500 nM) | also measured
CN[C@@H]1C[C@H]2O[C@@](C)([C@@H]1OC)n1c3ccccc3c3c4c(c5c6ccccc6n2c5c31)C(=O)NC4 [STU, staurosporine, reference compound] | – | – | – | -1.8% | – | – | – | – | – | – | 9% | – | 0.8% | remaining activity at 0.5 µM [5]: 1.6%; remaining activity at 0.5 µM [9]: -0.6%
